# Results taken from paper PMC11012289, “The Discovery of New Inhibitors of Insulin-Regulated Aminopeptidase by a High-Throughput Screening of 400,000 Drug-like Compounds” (International Journal of Molecular Sciences, 2024).
# Like-named read-outs stand apart in the source and are kept apart here. Where no end group is shown, it is not given here. [ ]: non-standard residue; d: D form. Nle = CCCC[C@H](N)C(=O)O
# What was measured:
# rats = settings: cited from earlier work
# IRAP [1] = settings: read-out: Ki (affinity to IRAP); cited from earlier work
# IRAP [2] = biological target: IRAP; design: method as in PMID 18716029; settings: cited from earlier work
# [3] = tested on: APN, ERAP1, ERAP2, and LTA4H; settings: cited from earlier work
# rodents = tested on: rodents; design: method as in PMID 19233301, PMID 18716029; settings: intracerebroventricular administration; cited from earlier work
# [4] = cited from earlier work
# IRAP [5] = biological target: T1, IRAP (Homo sapiens, UniProt Q9UIQ6); test: Deselection fluorescence IRAP assay with 10 µM zinc; format: biochemical; settings: 10 µM ZnSO4 in assay buffer; for IC50: read-out: Fluorescence + Zn pIC50 (converted)
# T1 construct: The screen was performed with the soluble truncated IRAP enzyme; made in house
# T1 sequence (Q9UIQ6 155-1025 limits assumed): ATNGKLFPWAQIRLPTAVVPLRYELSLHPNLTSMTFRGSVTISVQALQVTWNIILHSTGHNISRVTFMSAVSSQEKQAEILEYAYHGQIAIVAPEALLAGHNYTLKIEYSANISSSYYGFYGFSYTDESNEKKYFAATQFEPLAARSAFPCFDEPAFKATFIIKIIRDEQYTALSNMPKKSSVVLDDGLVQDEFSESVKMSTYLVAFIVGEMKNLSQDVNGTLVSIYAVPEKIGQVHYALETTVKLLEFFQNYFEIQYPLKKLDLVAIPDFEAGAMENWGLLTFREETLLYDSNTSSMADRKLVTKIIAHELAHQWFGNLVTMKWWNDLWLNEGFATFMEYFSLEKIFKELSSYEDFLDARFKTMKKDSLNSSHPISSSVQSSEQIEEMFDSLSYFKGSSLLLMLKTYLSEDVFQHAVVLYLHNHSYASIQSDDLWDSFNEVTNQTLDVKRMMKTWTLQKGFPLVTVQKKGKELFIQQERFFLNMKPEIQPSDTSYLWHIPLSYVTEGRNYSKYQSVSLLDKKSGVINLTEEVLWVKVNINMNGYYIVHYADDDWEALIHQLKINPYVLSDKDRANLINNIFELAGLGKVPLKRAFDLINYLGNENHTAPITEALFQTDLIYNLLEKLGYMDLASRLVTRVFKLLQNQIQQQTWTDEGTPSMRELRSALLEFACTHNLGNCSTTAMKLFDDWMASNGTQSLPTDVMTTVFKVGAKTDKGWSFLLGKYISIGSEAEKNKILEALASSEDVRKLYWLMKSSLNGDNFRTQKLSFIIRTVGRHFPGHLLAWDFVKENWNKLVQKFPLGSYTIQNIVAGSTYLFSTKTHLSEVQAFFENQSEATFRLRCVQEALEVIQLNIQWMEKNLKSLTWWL
# IRAP [6] = biological target: T1, IRAP; test: Orthogonal absorbance IRAP assay (L-Leucine para-nitroanilide cleavage); format: biochemical; settings: 1 mM L-Leucine p-Nitroanilide, 120 min RT; for IC50: read-out: Absorbance pIC50 (converted)
# Summary of the method: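 Absorbance assay: IRAP protein at 2.5 × 10^−4 mg/mL final with 1 mM L-leucine para-nitroanilide in buffer containing 0.05% BSA; 120 min at RT in the dark. para-Nitroaniline read at 405 nm. Dose–response spanned 20 μM–27.4 nM compound, 1% DMSO.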
# IRAP [7] = biological target: T1, IRAP; test: Thermal shift (TSA) IRAP assay; format: binding; settings: screening hits at 30 µM, 1% DMSO
# [8] = design: method as in ELF screening history; settings: ref ELF screening history, cited from earlier work; for Enzyme Active: number of ELF enzyme screens in which the compound was active; for Targets active: number of ELF screens in which the compound was active; for Enzyme Active %: share of ELF enzyme targets screened; for Targets Active %: share of all ELF targets screened
# IRAP [9] = biological target: T1, IRAP; test: Primary fluorescence IRAP assay (L-Leucine-7-amido-4-methylcoumarin cleavage); format: biochemical; settings: for IC50 / Fluorescence pIC50: 37.5 µM L-Leucine-7-amido-4-methylcoumarin, 60 min RT, dose-response 20 µM-27.4 nM; for LipE: calculated from (pIC50Fluorescence − LogD)
# [10] = tested on: primary hippocampal neuron cultures; design: method as in PMID 26769413, PMID 36286055; settings: cited from earlier work
IC50 (IRAP [5]) [nM],IC50 (IRAP [6]) [nM],ΔTm at 30 µM (IRAP [7]) [°C],IC50 (IRAP [9]; read-out: Fluorescence IC50) [nM],LipE (IRAP [9]),Compound,Enzyme Active [8],Targets active [8],Enzyme Active % [8] [%],Targets Active % [8] [%],further results
–,–,–,–,–,"Leu-Val-Val-Tyr-Pro-Trp-Thr-Gln-Arg-Phe (LVVYPWTQRF; printed: Leu-Val-Val-Tyr-Pro-Trp-Thr-Gln-Arg-Phe) [LVV-hemorphin-7, structural analog of Ang IV]",–,–,–,–,effect on memory retention and retrieval (rats): strong promoters of memory retention and retrieval
–,–,–,–,–,Val-Tyr-Ile-His-Pro-Phe [Ang IV],–,–,–,–,Ki (IRAP [1]): 62 nM; effect on memory and learning (rats; intracerebroventricular injection): improved memory and learning
–,–,–,–,–,"Nle-Tyr-Ile-His-Pro-Phe ([Nle]YIHPF) [Nle-Ang IV, structural analog of Ang IV]",–,–,–,–,effect on memory retention and retrieval (rats): strong promoters of memory retention and retrieval
–,–,–,–,–,CCOC(=O)C1=C(NC(C)=O)Oc2cc(O)ccc2C1c1cccnc1 (stereo not shown) [HFI-419],–,–,–,–,Ki (IRAP [2]): 420 nM; selectivity versus other aminopeptidases [3]: high selectivity; effect on cognition (rodents): cognitive-enhancing effect
–,–,–,–,–,CC[C@H](C)[C@H](NC(=O)[C@H](Cc1ccc(O)cc1)NC(=O)[C@@H](CN)C(C)C)C(=O)N[C@H]1Cc2c([nH]c3ccccc23)CN(CC(=O)N[C@@H](Cc2ccccc2)C(=O)O)C1=O [IVDE77],–,–,–,–,metabolic stability [4]: improved metabolic stability
4570,11000,2.22,4680,3.06,NCC[C@H]1CCCCN1C(=O)Cn1nc(-c2ccc(Cl)nc2)c2c1CCCC2 [QHL38],5,9,6.3,6.5,–
2340,> 20000,0.15,2240,2.42,O=C(COCc1ccccc1)N1CCc2n[nH]c(-c3cccs3)c2CC1 [QHL14],3,5,7.3,6.6,–
2570,> 20000,-0.89,2400,3.54,O=c1cc(N2CCCC2)nc2n(Cc3cc(Cl)ccc3Cl)ccn12 [QHL15],6,10,7.1,7.1,–
1580,> 20000,0.15,1510,2.98,COc1cc(C(=O)N2CCc3n[nH]c(-c4cccs4)c3CC2)on1 [QHL9],2,4,4.9,5.3,–
–,–,–,–,–,N[C@H]1CCSSC[C@@H](C(=O)NCc2ccccc2CC(=O)O)NC(=O)C[C@H](Cc2ccc(O)cc2)NC1=O [HA08],–,–,–,–,effect on hydrogen peroxide-induced toxicity [10]: reversed hydrogen peroxide-induced toxicity; effect on spine density [10]: enhanced spine densities
2820,3800,2.07,2630,3.14,CC(C)[C@@H](CS(=O)(=O)N(C)CC1CCc2ccccc2C1)C(=O)NO (stereo partly shown) [QHL16],4,4,5.1,2.8,–
2950,16200,0.3,2820,1.83,CC(C)c1cc(C(=O)N2CCc3n[nH]c(-c4cccs4)c3CC2)[nH]n1 [QHL19],4,6,9.5,7.9,–
–,–,–,–,–,CCOC(=O)C1=C(NC(C)=O)Oc2cc(O)ccc2C1c1cnc2ccccc2c1 (stereo not shown) [HFI-437],–,–,–,–,Ki (IRAP [2]): 20 nM
389,708,5.22,–,4.08,CC(C)C(CS(=O)(=O)N(Cc1cc2ccccc2o1)C(C)C)C(=O)NO (stereo not shown) [QHL3],3,4,3.2,2.7,IC50 (IRAP [9]; read-out: Fluorescence pIC50 (converted)): 380 nM
1380,> 20000,0.3,1290,2.10,Fc1ccc(F)c(Cn2ccc3ncc(N4CCNCC4)cc32)c1Cl [QHL7],8,9,8.6,6.0,–
–,–,–,3890,3.88,Nc1nc2cc(C(=O)O)ccc2n1Cc1cc(F)cc(F)c1 [QHL34],1,2,1.3,1.4,"Fluorescence + Zn pIC50 (IRAP [5]): 5.39; Absorbance pIC50 (IRAP [6]): < 4.70; TSA (∆°C), thermal shift of IRAP (IRAP [7]): 0.3 °C; Fluorescence pIC50 (IRAP [9]): 5.41"
–,–,–,10200,3.57,COCCN1CCc2cnc(NCc3ccc(S(N)(=O)=O)cc3)cc21 [QHL47],4,6,4.7,4.2,"Fluorescence + Zn pIC50 (IRAP [5]): 4.99; Absorbance pIC50 (IRAP [6]): 5.51; TSA (∆°C), thermal shift of IRAP (IRAP [7]): 0.3 °C; Fluorescence pIC50 (IRAP [9]): 4.99"
676,2000,4,710,2.51,COc1ccc(S(=O)(=O)CCC(CCCc2ccccc2)C(=O)NO)cc1 (stereo not shown) [QHL4],3,5,3.2,3.4,–
3240,> 20000,0.3,2630,2.19,Cc1cc(NC(=O)Cn2cnc3sc4c(c3c2=O)CCCC4)n(-c2ccccc2)n1 [QHL17],4,5,4.2,3.3,–
